Laboratory results published in the NIST ThermoML archive (doi:10.1021/acs.jced.5b00978).
Several values for one entry are separate records, joined by “and”; a condition that tells them apart may be missing. Equal entries are not always repeated.

Assays:
[1] = for Normal melting temperature: DTA
[2] = Molar enthalpy of transition or fusion; settings: Crystal; DSC

COC(=O)c1ccc(C=O)cc1 [methyl 4-formylbenzoate]
[1]
Settings	vapor or sublimation pressure [kPa]
303.1 K, Crystal, Closed cell (Static) method	0.00069
305.04 K, Crystal, Closed cell (Static) method	0.00086
307.04 K, Crystal, Closed cell (Static) method	0.00109
309.04 K, Crystal, Closed cell (Static) method	0.00137
311.05 K, Crystal, Closed cell (Static) method	0.00173
313.01 K, Crystal, Closed cell (Static) method	0.00216
314.99 K, Crystal, Closed cell (Static) method	0.00268
317.07 K, Crystal, Closed cell (Static) method	0.00335
319.02 K, Crystal, Closed cell (Static) method	0.00412
321.01 K, Crystal, Closed cell (Static) method	0.00511
323.02 K, Crystal, Closed cell (Static) method	0.00635
324.99 K, Crystal, Closed cell (Static) method	0.0078
326.93 K, Metastable liquid, Closed cell (Static) method	0.01165
326.97 K, Crystal, Closed cell (Static) method	0.00965
328.93 K, Metastable liquid, Closed cell (Static) method	0.01357
328.97 K, Crystal, Closed cell (Static) method	0.01165
330.9 K, Metastable liquid, Closed cell (Static) method	0.01573
330.92 K, Crystal, Closed cell (Static) method	0.01405
332.84 K, Metastable liquid, Closed cell (Static) method	0.01823
334.84 K, Metastable liquid, Closed cell (Static) method	0.02122
336.84 K, Closed cell (Static) method, Liquid	0.02458
338.85 K, Closed cell (Static) method, Liquid	0.02803
340.8 K, Closed cell (Static) method, Liquid	0.03252
342.76 K, Closed cell (Static) method, Liquid	0.0371
344.76 K, Closed cell (Static) method, Liquid	0.04283
346.67 K, Closed cell (Static) method, Liquid	0.04856
348.71 K, Closed cell (Static) method, Liquid	0.05584
350.65 K, Closed cell (Static) method, Liquid	0.06347
352.66 K, Closed cell (Static) method, Liquid	0.07223
354.52 K, Closed cell (Static) method, Liquid	0.08123
356.6 K, Closed cell (Static) method, Liquid	0.09314
358.58 K, Closed cell (Static) method, Liquid	0.1051
360.55 K, Closed cell (Static) method, Liquid	0.1182
362.49 K, Closed cell (Static) method, Liquid	0.1338
364.51 K, Closed cell (Static) method, Liquid	0.1519
366.47 K, Closed cell (Static) method, Liquid	0.1698
368.46 K, Closed cell (Static) method, Liquid	0.1902
370.41 K, Closed cell (Static) method, Liquid	0.2138
372.39 K, Closed cell (Static) method, Liquid	0.2395
374.28 K, Closed cell (Static) method, Liquid	0.2657
376.36 K, Closed cell (Static) method, Liquid	0.298
378.24 K, Closed cell (Static) method, Liquid	0.3306
380.3 K, Closed cell (Static) method, Liquid	0.3693
382.21 K, Closed cell (Static) method, Liquid	0.4085
384.22 K, Closed cell (Static) method, Liquid	0.4558
386.18 K, Closed cell (Static) method, Liquid	0.5028
388.17 K, Closed cell (Static) method, Liquid	0.562

Settings	Normal melting temperature [°C]
[1], Crystal	62.1

Settings	Molar enthalpy of transition or fusion [kcal/mol]
[2]	5.11

CNc1ccc(C(=O)OC)cc1 [methyl p-(methylamino)benzoate]
[1]
Settings	vapor or sublimation pressure
317.09 K, Crystal, Calculated from knudsen effusion weight loss	7.8e-05 kPa
319.16 K, Crystal, Calculated from knudsen effusion weight loss	0.000101 kPa and 0.000103 kPa
321.19 K, Crystal, Calculated from knudsen effusion weight loss	0.000131 kPa and 0.00013 kPa
323.08 K, Crystal, Calculated from knudsen effusion weight loss	0.000167 kPa and 0.000165 kPa and 0.000168 kPa
325.15 K, Crystal, Calculated from knudsen effusion weight loss	0.000213 kPa and 0.000207 kPa and 0.000215 kPa
327.18 K, Crystal, Calculated from knudsen effusion weight loss	0.000263 kPa and 0.000266 kPa and 0.000271 kPa
329.12 K, Crystal, Calculated from knudsen effusion weight loss	0.000338 kPa and 0.000335 kPa and 0.000341 kPa
331.22 K, Crystal, Calculated from knudsen effusion weight loss	0.000427 kPa and 0.000425 kPa and 0.000433 kPa
332.9 K, Crystal, Closed cell (Static) method	0.00054 kPa
333.17 K, Crystal, Calculated from knudsen effusion weight loss	0.000537 kPa and 0.000535 kPa and 0.00054 kPa
334.88 K, Crystal, Closed cell (Static) method	0.00068 kPa
335.09 K, Crystal, Calculated from knudsen effusion weight loss	0.00068 kPa and 0.000688 kPa and 0.000691 kPa
336.87 K, Crystal, Closed cell (Static) method	0.00086 kPa
337.17 K, Crystal, Calculated from knudsen effusion weight loss	0.000869 kPa and 0.000862 kPa and 0.000855 kPa
338.87 K, Crystal, Closed cell (Static) method	0.00108 kPa
339.18 K, Crystal, Calculated from knudsen effusion weight loss	0.001064 kPa and 0.00106 kPa and 0.001061 kPa
340.85 K, Crystal, Closed cell (Static) method	0.00134 kPa
342.84 K, Crystal, Closed cell (Static) method	0.00167 kPa
344.81 K, Crystal, Closed cell (Static) method	0.00207 kPa
346.8 K, Crystal, Closed cell (Static) method	0.00257 kPa
348.77 K, Metastable liquid, Closed cell (Static) method	0.00482 kPa
348.79 K, Crystal, Closed cell (Static) method	0.00317 kPa
350.76 K, Metastable liquid, Closed cell (Static) method	0.0056 kPa
350.81 K, Crystal, Closed cell (Static) method	0.0039 kPa
352.75 K, Metastable liquid, Closed cell (Static) method	0.00655 kPa
352.76 K, Crystal, Closed cell (Static) method	0.00477 kPa
354.74 K, Crystal, Closed cell (Static) method	0.00575 kPa
354.74 K, Metastable liquid, Closed cell (Static) method	0.0076 kPa
356.72 K, Metastable liquid, Closed cell (Static) method	0.00876 kPa
356.73 K, Crystal, Closed cell (Static) method	0.00703 kPa
358.69 K, Metastable liquid, Closed cell (Static) method	0.01017 kPa
358.71 K, Crystal, Closed cell (Static) method	0.0085 kPa
360.67 K, Metastable liquid, Closed cell (Static) method	0.01173 kPa
360.69 K, Crystal, Closed cell (Static) method	0.01033 kPa
362.67 K, Metastable liquid, Closed cell (Static) method	0.01351 kPa
364.65 K, Metastable liquid, Closed cell (Static) method	0.01561 kPa
366.64 K, Metastable liquid, Closed cell (Static) method	0.01788 kPa
368.55 K, Closed cell (Static) method, Liquid	0.02015 kPa
370.6 K, Closed cell (Static) method, Liquid	0.02331 kPa
372.58 K, Closed cell (Static) method, Liquid	0.02669 kPa
374.55 K, Closed cell (Static) method, Liquid	0.03049 kPa
376.53 K, Closed cell (Static) method, Liquid	0.03459 kPa
378.5 K, Closed cell (Static) method, Liquid	0.03935 kPa
380.51 K, Closed cell (Static) method, Liquid	0.04446 kPa
382.47 K, Closed cell (Static) method, Liquid	0.05044 kPa
384.46 K, Closed cell (Static) method, Liquid	0.05682 kPa
386.45 K, Closed cell (Static) method, Liquid	0.06435 kPa
388.41 K, Closed cell (Static) method, Liquid	0.07241 kPa
390.4 K, Closed cell (Static) method, Liquid	0.0815 kPa
392.35 K, Closed cell (Static) method, Liquid	0.09154 kPa

Settings	Normal melting temperature [°C]
[1], Crystal	93

Settings	Molar enthalpy of transition or fusion [kcal/mol]
[2]	6.57

COC(=O)c1ccc(C#N)cc1 [methyl p-cyanobenzoate]
[1], Closed cell (Static) method
Settings	vapor or sublimation pressure [kPa]
303.93 K, Crystal	0.00066
306.95 K, Crystal	0.00092
309.92 K, Crystal	0.0013
312.93 K, Crystal	0.00183
315.91 K, Crystal	0.00252
318.88 K, Crystal	0.00347
321.94 K, Crystal	0.00479
324.93 K, Crystal	0.00649
327.89 K, Crystal	0.00872
330.89 K, Crystal	0.01165
333.86 K, Crystal	0.01562
336.84 K, Crystal	0.02058
339.83 K, Liquid	0.02686
342.81 K, Liquid	0.0331
345.8 K, Liquid	0.04054
348.76 K, Liquid	0.04932
351.75 K, Liquid	0.06007
354.72 K, Liquid	0.07314
357.79 K, Liquid	0.08912
360.66 K, Liquid	0.1059
363.64 K, Liquid	0.1276
366.47 K, Liquid	0.1508
369.42 K, Liquid	0.1793
372.4 K, Liquid	0.2131
375.39 K, Liquid	0.2508
378.3 K, Liquid	0.2957
381.25 K, Liquid	0.3487
384.19 K, Liquid	0.4061
387.18 K, Liquid	0.4767
390.14 K, Liquid	0.5554
393.05 K, Liquid	0.644

Settings	Normal melting temperature [°C]
[1], Crystal	65.1

Settings	Molar enthalpy of transition or fusion [kcal/mol]
[2]	5.21

COC(=O)c1ccc([N+](=O)[O-])cc1 [methyl p-nitrobenzoate]
[1]
Settings	vapor or sublimation pressure [kPa]
319.01 K, Crystal, Closed cell (Static) method	0.00074
321.07 K, Crystal, Closed cell (Static) method	0.00092
322.98 K, Crystal, Closed cell (Static) method	0.00115
325.03 K, Crystal, Closed cell (Static) method	0.00144
326.97 K, Crystal, Closed cell (Static) method	0.00177
328.99 K, Crystal, Closed cell (Static) method	0.0022
330.91 K, Crystal, Closed cell (Static) method	0.00265
332.94 K, Crystal, Closed cell (Static) method	0.00333
334.86 K, Crystal, Closed cell (Static) method	0.00404
336.9 K, Crystal, Closed cell (Static) method	0.00497
338.83 K, Crystal, Closed cell (Static) method	0.00597
340.86 K, Crystal, Closed cell (Static) method	0.00734
342.77 K, Crystal, Closed cell (Static) method	0.00878
344.81 K, Crystal, Closed cell (Static) method	0.01073
346.71 K, Crystal, Closed cell (Static) method	0.01286
348.76 K, Crystal, Closed cell (Static) method	0.01564
350.59 K, Crystal, Closed cell (Static) method	0.01843
352.71 K, Crystal, Closed cell (Static) method	0.02255
354.57 K, Crystal, Closed cell (Static) method	0.02656
356.66 K, Crystal, Closed cell (Static) method	0.03213
358.51 K, Crystal, Closed cell (Static) method	0.03767
360.47 K, Metastable liquid, Closed cell (Static) method	0.05433
360.61 K, Crystal, Closed cell (Static) method	0.04542
362.46 K, Metastable liquid, Closed cell (Static) method	0.0615
362.47 K, Crystal, Closed cell (Static) method	0.05331
364.43 K, Metastable liquid, Closed cell (Static) method	0.06971
364.55 K, Crystal, Closed cell (Static) method	0.06362
370.48 K, Closed cell (Static) method, Liquid	0.1019
372.46 K, Closed cell (Static) method, Liquid	0.1149
374.39 K, Closed cell (Static) method, Liquid	0.1281
376.4 K, Closed cell (Static) method, Liquid	0.1446
378.37 K, Closed cell (Static) method, Liquid	0.1615
380.36 K, Closed cell (Static) method, Liquid	0.1809
382.3 K, Closed cell (Static) method, Liquid	0.2008
384.27 K, Closed cell (Static) method, Liquid	0.2241
386.24 K, Closed cell (Static) method, Liquid	0.2502
388.24 K, Closed cell (Static) method, Liquid	0.2792
390.19 K, Closed cell (Static) method, Liquid	0.3091
392.19 K, Closed cell (Static) method, Liquid	0.3449
394.11 K, Closed cell (Static) method, Liquid	0.3796
396.19 K, Closed cell (Static) method, Liquid	0.4248
398.07 K, Closed cell (Static) method, Liquid	0.4655
400.05 K, Closed cell (Static) method, Liquid	0.5141
401.96 K, Closed cell (Static) method, Liquid	0.5665
403.96 K, Closed cell (Static) method, Liquid	0.6244
405.95 K, Closed cell (Static) method, Liquid	0.6894
407.87 K, Closed cell (Static) method, Liquid	0.7541
409.86 K, Closed cell (Static) method, Liquid	0.8302
411.81 K, Closed cell (Static) method, Liquid	0.9078
413.78 K, Closed cell (Static) method, Liquid	0.9952
415.75 K, Closed cell (Static) method, Liquid	1.088

Settings	Normal melting temperature [°C]
[1], Crystal	96.2

Settings	Molar enthalpy of transition or fusion [kcal/mol]
[2]	5.83
